Experiment: pH of suspensions
Assay type: physicochemical
Conditions: 0.2% w/v solution in water
Protocol: The effect of the suspending agent and sweetener on the pH and viscosity of the suspensions was examined. AVICEL® RC 591, alone and in combination with other potential formulation components, was suspended in water. The pH of the suspensions was measured using a pH meter. The viscosity of the suspensions was measured on a Brookfield […] RV series viscometer: spindle size 4 at 20 rpm was used. The suspensions were visually inspected for signs of precipitation, sedimentation, and consistency.

Structure (SMILES): OC[C@H]1O[C@H](O[C@]2(CCl)O[C@H](CCl)[C@@H](O)[C@@H]2O)[C@H](O)[C@@H](O)[C@H]1Cl [sucralose]
- pH of solution: 6.4

— US20110117193A1, “ANTIRETROVIRAL DRUG FORMULATIONS FOR TREATMENT OF CHILDREN EXPOSED TO HIV/AIDS” (priority 2008, published 2011)
